Values after ≈ are worked out from the molar mass of the structure shown. Where two headings read alike, the source gives them in different places. *1 amine or outer side, *2 acyl side, *3 side chain or, on linkers, in order; H or OH if unused. Where a SMILES comes first, the peptide text is derived from it. Bridges are numbered along the chain shown (N, C = ends). [ ]: non-standard residue; d: D form. The star is where a group is joined. Palmitoyl(16-(5-tetrazolyl)) = O=C(CCCCCCCCCCCCCCCc1nnn[nH]1)*; Lys(CH2CO2H)2 = N[C@@H](CCCCN(CC(=O)O)CC(=O)O)C(=O)O; X1 = O=C(O)CN(CC(=O)O)C[C@H](N[*:1])C(=O)[*:2]; C20 diacid = O=C(O)CCCCCCCCCCCCCCCCCCC(=O)*; C16 diacid = O=C(O)CCCCCCCCCCCCCCC(=O)*; Hyp = O=C(O)[C@@H]1C[C@@H](O)CN1; NTA = O=C(O)CN(CC(=O)O)CC(=O)*; Nle = CCCC[C@H](N)C(=O)O; Dab = NCC[C@H](N)C(=O)O; Dap = NC[C@H](N)C(=O)O; AEEA = NCCOCCOCC(=O)O; βAla = NCCC(=O)O
How the values were obtained:
[1] = molecular target: T1, MC1 receptor (Homo sapiens, UniProt Q01726); experiment: Assay (IV) Melanocortin Receptor 1 (MC1) binding assay
T1 construct: expressed in transfected cells
T1 sequence (Q01726 whole entry): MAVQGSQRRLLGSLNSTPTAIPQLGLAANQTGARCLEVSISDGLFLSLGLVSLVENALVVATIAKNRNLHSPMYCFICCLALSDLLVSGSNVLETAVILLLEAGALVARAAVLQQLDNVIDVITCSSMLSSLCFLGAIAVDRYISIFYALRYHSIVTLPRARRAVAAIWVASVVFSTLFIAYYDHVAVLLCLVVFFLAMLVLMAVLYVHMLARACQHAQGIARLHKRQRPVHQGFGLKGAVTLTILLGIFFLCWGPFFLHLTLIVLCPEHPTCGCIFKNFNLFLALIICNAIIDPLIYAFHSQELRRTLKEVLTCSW
Experimental: Assay (IV)—Melanocortin Receptor 1 (MC1) Binding Assay
The MC1 receptor binding assay is performed on BHK cell membranes stably expressing the MC1 receptor. The assay is performed in a total volume of 250 NI: 25 μl of ^125NDP-α-MSH (22 pM in final concentration), 25 μl of test compound/control and 200 μl of cell membrane (25 μg/ml). Test compounds are dissolved in DMSO. Radioactively labeled ligand, membranes and test compounds are diluted in buffer: 25 mM HEPES, pH 7.4, 0.1 mM CaCl2, 1 mM MgSO4, 1 mM EDTA, 0.1% HSA and 0.005% Tween™ 20. Alternatively, HSA may be substituted with ovalbumin. The samples are incubated at 30° C. for 90 min. in Costar round-bottom microtiter plates. Incubation is terminated by filtration on a Packard harvester filtermate. Rapid filtration through Packard Unifilter-96 GF/B filters pre-treated with polyethylenimine (PerkinElmer 6005277). The filters are washed with ice-cold 0.9% NaCl 8-10 times. The plates is air dried at app. 55° C. for 30 min, and 50 μl Microscint 0 (Packard, cat. No. 6013616) is added to each well. The plates are counted in a Topcounter (1 min/well).
(§1) The data are analysed by non-linear regression analysis of binding curves, using the Windows™ program GraphPad™ Prism (GraphPad Software, USA).

[2] = molecular target: T2, human MC4 receptor (Homo sapiens, UniProt P32245); experiment: Assay (V) Melanocortin Receptor 4 (MC4) binding assay; settings: 125NDP-α-MSH binding, BHK cell membranes
T2 construct: expressed in transfected cells
T2 sequence (P32245 whole entry): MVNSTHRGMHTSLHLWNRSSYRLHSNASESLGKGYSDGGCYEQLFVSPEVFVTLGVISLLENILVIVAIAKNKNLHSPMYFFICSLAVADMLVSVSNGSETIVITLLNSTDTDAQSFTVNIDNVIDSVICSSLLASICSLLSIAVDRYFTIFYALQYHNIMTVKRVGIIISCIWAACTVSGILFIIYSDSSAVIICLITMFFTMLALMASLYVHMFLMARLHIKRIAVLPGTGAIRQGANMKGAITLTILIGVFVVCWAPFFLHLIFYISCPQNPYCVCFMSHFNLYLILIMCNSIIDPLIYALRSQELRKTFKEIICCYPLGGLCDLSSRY
Experimental: Assay (V)—Melanocortin Receptor 4 (MC4) Binding Assay
In vitro ^125NDP-α-MSH binding to recombinant BHK cells expressing human MC4 receptor (filtration assay).
The assay is performed in 5 ml minisorb vials (Sarstedt No. 55.526) or in 96-well filterplates (Millipore MADVN 6550), and using BHK cells expressing the human MC4 receptor using BHK cells stably expressing the human MC4 receptor. The membranes were prepared from frozen or fresh cells that were homogenized in 20 mM HEPES pH 7.1, 5 mM MgCl2 and 1 mg/ml bacitracin and centrifuged at 15000 rpm at 4° C., 10 min in a Sorvall RC 5B plus, SS-34 rotor. The supernatant was discarded, and the pellets were re-suspended in buffer, homogenized and centrifuged two more times. The final pellets were resuspended in the buffer mentioned above, and the protein concentration was measured and adjusted with buffer to 14 to 17 mg/ml and the membrane preparation were kept at −80° C. until assay. The assay was run directly on a dilution of this cell membrane suspension, without any further preparation. The BHK cell membranes are kept at −80° C. until assay, and the assay is run directly on a dilution of this cell membrane suspension, without further preparation. The suspension is diluted to give maximally 10% specific binding, i.e. to approx. 50-100 fold dilution. The assay is performed in a total volume of 200 μl: 50 μl of cell suspension, 50 μl of ^125NDP-α-MSH (≈79 pM in final concentration), 50 μl of test compound and 50 μl binding buffer (pH 7) mixed and incubated for 2 h at 25° C. [binding buffer: 25 mM HEPES, pH 7.0, 1 mM CaCl2, 1 mM MgSO4, 1 mM EGTA, 0.02% Bacitracin, 0.005% Tween™ 20 and 0.1% HSA or, alternatively, 0.1% ovalbumin (Sigma; catalogue No. A-5503)]. Test compounds are dissolved in DMSO and diluted in binding buffer. Radiolabelled ligand and membranes are diluted in binding buffer. The incubation is stopped by dilution with 2×100 μl ice-cold 0.9% NaCl. The radioactivity retained on the filters is counted using a Cobra II auto gamma counter.
as §1

[3] = Solubility data of compounds in water over the pH range; format: physicochemical; settings: read-out: Conc (solubility in water)
[4] = 125NDP-α-MSH binding, BHK cell membranes, read-out: Assay (IV) MC1 Ki

CCCC[C@H](NC(=O)[C@H](CNC(=O)CN(CC(=O)O)CC(=O)O)NC(=O)[C@H](Cc1c[nH]cn1)NC(=O)[C@H](CCC(N)=O)NC(=O)[C@H](CO)NC(=O)CNC(=O)COCCOCCNC(=O)CCCCCCCCCCCCCCC(=O)O)C(=O)N[C@H]1CCC(=O)NCCCC[C@@H](C(N)=O)NC(=O)[C@H](Cc2c[nH]c3ccccc23)NC(=O)[C@H](CCCNC(=N)N)NC(=O)[C@@H](Cc2ccccc2)NC(=O)[C@@H]2C[C@@H](O)CN2C1=O [Example 13, {2-[2-(15-Carboxypentadecanoylamino)ethoxy]ethoxy}acetyl-Gly-Ser-Gln-His-Dap(BCMA)-Nle-c[Glu-Hyp-D-Phe-Arg-Trp-Lys]-NH2] ({C16 diacid-AEEA}-GSQH[Dap](NTA)[Nle]E[Hyp][dF]RWK-NH2; lactam 7-12)
Ki [1, 4]: > 10000 nM | Ki ([2]; read-out: Assay (V) MC4 [Ki]): 3.6 nM

CCCC[C@H](NC(=O)[C@H](CNC(=O)CN(CC(=O)O)CC(=O)O)NC(=O)[C@H](Cc1ccc(O)cc1)NC(=O)[C@H](CCC(N)=O)NC(=O)[C@H](CO)NC(=O)CNC(=O)COCCOCCNC(=O)CCCCCCCCCCCCCCCc1nnn[nH]1)C(=O)N[C@H]1CCC(=O)NCCCC[C@@H](C(N)=O)NC(=O)[C@H](Cc2c[nH]c3ccccc23)NC(=O)[C@H](CCCNC(=N)N)NC(=O)[C@@H](Cc2ccccc2)NC(=O)[C@@H]2C[C@@H](O)CN2C1=O [Example 19, (2-{2-[16-(Tetrazol-5-yl)hexadecanoylamino]ethoxy}ethoxy)acetyl-Gly-Ser-Gln-Tyr-Dap(BCMA)-Nle-c[Glu-Hyp-D-Phe-Arg-Trp-Lys]-NH2] ({Palmitoyl(16-(5-tetrazolyl))-AEEA}-GSQY[Dap](NTA)[Nle]E[Hyp][dF]RWK-NH2; lactam 7-12)
Ki [1, 4]: > 10000 nM | Ki ([2]; read-out: Assay (V) MC4 [Ki]): 3.9 nM

CCCC[C@H](NC(=O)CCNC(=O)[C@H](CCCCN(CC(=O)O)CC(=O)O)NC(=O)[C@H](Cc1c[nH]cn1)NC(=O)[C@H](CCC(N)=O)NC(=O)[C@H](CO)NC(=O)[C@H](CO)NC(=O)[C@H](CCC(N)=O)NC(=O)[C@@H](CO)NC(=O)CNC(=O)COCCOCCNC(=O)COCCOCCNC(=O)CCCCCCCCCCCCCCCCCCC(=O)O)C(=O)N[C@H]1CCC(=O)NCCCC[C@@H](C(N)=O)NC(=O)[C@H](Cc2c[nH]c3ccccc23)NC(=O)[C@H](CCCNC(=N)N)NC(=O)[C@@H](Cc2ccccc2)NC(=O)[C@@H]2C[C@@H](O)CN2C1=O [Example 22, {2-[2-(2-{2-[2-(19-Carboxynonadecanoylamino)ethoxy]ethoxy}acetylamino)ethoxy]ethoxy}acetyl-Gly-D-Ser-Gln-Ser-Ser-Gln-His-Lys(biscarboxymethyl)β-Ala-Nle-c[Glu-Hyp-D-Phe-Arg-Trp-Lys]-NH2] ({C20 diacid-AEEA-AEEA}-G[dS]QSSQH[Lys(CH2CO2H)2][βAla][Nle]E[Hyp][dF]RWK-NH2; lactam 11-16)
Ki [1]: > 10000 nM | Ki ([2]; Assay (V) MC4 [Ki] (nM)): 0.55 nM

CCCC[C@H](NC(=O)[C@H](CCNC(=O)CN(CC(=O)O)CC(=O)O)NC(=O)[C@H](Cc1c[nH]cn1)NC(=O)[C@H](CCC(N)=O)NC(=O)[C@H](CO)NC(=O)CNC(=O)COCCOCCNC(=O)CCCCCCCCCCCCCCCc1nnn[nH]1)C(=O)N[C@H]1CCC(=O)NCCCC[C@@H](C(N)=O)NC(=O)[C@H](Cc2c[nH]c3ccccc23)NC(=O)[C@H](CCCNC(=N)N)NC(=O)[C@@H](Cc2ccccc2)NC(=O)[C@@H]2C[C@@H](O)CN2C1=O [Example 10, (2-{2-[16-(Tetrazol-5-yl)hexadecanoylamino]ethoxy}ethoxy)acetyl-Gly-Ser-Gln-His-Dab(BCMA)-Nle-c[Glu-Hyp-D-Phe-Arg-Trp-Lys]-NH2] ({Palmitoyl(16-(5-tetrazolyl))-AEEA}-GSQH[Dab](NTA)[Nle]E[Hyp][dF]RWK-NH2; lactam 7-12)
Ki [1, 4]: > 10000 nM | Ki ([2]; read-out: Assay (V) MC4 [Ki]): 1.05 nM

CCCC[C@H](NC(=O)[C@H](CCCCN(CC(=O)O)CC(=O)O)NC(=O)CCNC(=O)[C@H](Cc1c[nH]cn1)NC(=O)[C@H](CCC(N)=O)NC(=O)[C@H](CO)NC(=O)[C@H](CO)NC(=O)[C@H](CCC(N)=O)NC(=O)[C@@H](CO)NC(=O)CNC(=O)COCCOCCNC(=O)COCCOCCNC(=O)CCCCCCCCCCCCCCCc1nnn[nH]1)C(=O)N[C@H]1CCC(=O)NCCCC[C@@H](C(N)=O)NC(=O)[C@H](Cc2c[nH]c3ccccc23)NC(=O)[C@H](CCCNC(=N)N)NC(=O)[C@@H](Cc2ccccc2)NC(=O)[C@@H]2C[C@@H](O)CN2C1=O [Example 12, (2-{2-[2-(2-{2-[16-(Tetrazol-5-yl)hexadecanoylamino]ethoxy}ethoxy)acetylamino]ethoxy}ethoxy)acetyl-Gly-D-Ser-Gln-Ser-Ser-Gln-His-β-Ala-Lys(biscarboxymethyl)-Nle-c[Glu-Hyp-D-Phe-Arg-Trp-Lys]-NH2] ({Palmitoyl(16-(5-tetrazolyl))-AEEA-AEEA}-G[dS]QSSQH[βAla][Lys(CH2CO2H)2][Nle]E[Hyp][dF]RWK-NH2; lactam 11-16)
solubility at 3 days ([3]; pH 3.1, pH 3.10): 409 µM (≈ 1060 µg/mL) | solubility at 3 days ([3]; pH 4.11, pH 4.11): 374 µM (≈ 971 µg/mL) | solubility at 3 days ([3]; pH 4.69, pH 4.69): 395 µM (≈ 1030 µg/mL) | solubility at 3 days ([3]; pH 4.82, pH 4.82): 268 µM (≈ 696 µg/mL) | solubility at 3 days ([3]; pH 5.07, pH 5.07): 136 µM (≈ 353 µg/mL) | solubility at 3 days ([3]; pH 5.56, pH 5.56): 43 µM (≈ 112 µg/mL) | solubility at 3 days ([3]; pH 6.71, pH 6.71): 58 µM (≈ 151 µg/mL) | solubility at 3 days ([3]; pH 6.71): 87 µM (≈ 226 µg/mL) | solubility at 3 days ([3]; pH 6.99): 119 µM (≈ 309 µg/mL) | solubility at 3 days ([3]; pH 7.15, pH 7.15): 210 µM (≈ 545 µg/mL) | solubility at 3 days ([3]; pH 7.72, pH 7.72): 256 µM (≈ 665 µg/mL) | Ki ([2]; Assay (V) MC4 [Ki] (nM)): 2.85 nM

CCCC[C@H](NC(=O)[C@H](CN(CC(=O)O)CC(=O)O)NC(=O)[C@H](Cc1ccc(O)cc1)NC(=O)[C@H](CCC(N)=O)NC(=O)[C@H](CO)NC(=O)CNC(=O)COCCOCCNC(=O)CCCCCCCCCCCCCCCc1nnn[nH]1)C(=O)N[C@H]1CCC(=O)NCCCC[C@@H](C(N)=O)NC(=O)[C@H](Cc2c[nH]c3ccccc23)NC(=O)[C@H](CCCNC(=N)N)NC(=O)[C@@H](Cc2ccccc2)NC(=O)[C@@H]2C[C@@H](O)CN2C1=O [Example 23, (2-{2-[16-(Tetrazol-5-yl)hexadecanoylamino]ethoxy}ethoxy)acetyl-Gly-Ser-Gln-Tyr-Dap(biscarboxymethyl)-Nle-c[Glu-Hyp-D-Phe-Arg-Trp-Lys]-NH2] ({Palmitoyl(16-(5-tetrazolyl))-AEEA}-GSQY[X1][Nle]E[Hyp][dF]RWK-NH2; lactam 7-12)
Ki [1, 4]: > 10000 nM | Ki ([2]; read-out: Assay (V) MC4 [Ki]): 7.9 nM

CCCC[C@H](NC(=O)[C@H](CN(CC(=O)O)CC(=O)O)NC(=O)[C@H](Cc1c[nH]cn1)NC(=O)[C@H](CCC(N)=O)NC(=O)[C@H](CO)NC(=O)CNC(=O)COCCOCCNC(=O)CCCCCCCCCCCCCCCc1nnn[nH]1)C(=O)N[C@H]1CCC(=O)NCCCC[C@@H](C(N)=O)NC(=O)[C@H](Cc2c[nH]c3ccccc23)NC(=O)[C@H](CCCNC(=N)N)NC(=O)[C@@H](Cc2ccccc2)NC(=O)[C@@H]2C[C@@H](O)CN2C1=O [Example 6, (2-{2-[16-(Tetrazol-5-yl)hexadecanoylamino]ethoxy}ethoxy)acetyl-Gly-Ser-Gln-His-Dap(biscarboxymethyl)-Nle-c[Glu-Hyp-D-Phe-Arg-Trp-Lys]-NH2] ({Palmitoyl(16-(5-tetrazolyl))-AEEA}-GSQH[X1][Nle]E[Hyp][dF]RWK-NH2; lactam 7-12)
Ki [1]: 5860 nM | Ki ([2]; Assay (V) MC4 [Ki] (nM)): 2.9 nM

— US20100173835A1, “Peptides for Treatment of Obesity” (Novo Nordisk A/S, priority 2008, published 2010)
